Laboratory results published in ChEMBL document CHEMBL3991601, “The target landscape of clinical kinase drugs” (Science, 2017).
Calls of active or inactive are those of the source. Cut-off read from the data, not from the text of the source, for most assays here: actives have a measured Kd and inactives only a lower limit.

Key:
Ephrin type-B receptor 6 = molecular target: T1, Ephrin type-B receptor 6 (Homo sapiens, UniProt O15197)
T1 sequence (O15197 whole entry): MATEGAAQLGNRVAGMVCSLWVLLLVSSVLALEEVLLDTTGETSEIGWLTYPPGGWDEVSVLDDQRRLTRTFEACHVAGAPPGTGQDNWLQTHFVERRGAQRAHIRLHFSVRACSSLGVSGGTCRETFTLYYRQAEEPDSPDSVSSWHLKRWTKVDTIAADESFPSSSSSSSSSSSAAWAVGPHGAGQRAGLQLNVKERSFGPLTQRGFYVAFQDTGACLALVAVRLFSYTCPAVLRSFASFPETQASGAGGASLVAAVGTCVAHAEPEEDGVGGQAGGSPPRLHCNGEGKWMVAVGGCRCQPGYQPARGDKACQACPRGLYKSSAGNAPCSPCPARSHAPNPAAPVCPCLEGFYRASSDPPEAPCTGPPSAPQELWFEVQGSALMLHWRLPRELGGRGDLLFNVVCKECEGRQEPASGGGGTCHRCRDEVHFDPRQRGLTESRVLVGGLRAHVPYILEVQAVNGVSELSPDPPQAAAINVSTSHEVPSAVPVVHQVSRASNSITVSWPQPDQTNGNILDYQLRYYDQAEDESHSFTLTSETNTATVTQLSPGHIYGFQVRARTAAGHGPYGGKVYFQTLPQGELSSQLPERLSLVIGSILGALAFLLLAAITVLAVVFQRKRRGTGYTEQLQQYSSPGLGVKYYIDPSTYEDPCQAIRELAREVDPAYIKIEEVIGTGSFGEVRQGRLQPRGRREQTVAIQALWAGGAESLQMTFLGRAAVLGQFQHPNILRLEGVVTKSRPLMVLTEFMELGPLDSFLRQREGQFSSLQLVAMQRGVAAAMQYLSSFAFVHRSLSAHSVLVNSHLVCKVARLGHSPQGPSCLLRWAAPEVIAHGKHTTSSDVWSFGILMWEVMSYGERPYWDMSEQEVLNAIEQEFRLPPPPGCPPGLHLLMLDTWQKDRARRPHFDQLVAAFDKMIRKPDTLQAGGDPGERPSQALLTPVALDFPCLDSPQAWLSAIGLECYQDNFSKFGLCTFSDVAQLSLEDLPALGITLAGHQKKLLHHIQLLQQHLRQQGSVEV

Aurora kinase A = molecular target: T2, Aurora kinase A (Homo sapiens, UniProt O14965)
T2 sequence (O14965 whole entry): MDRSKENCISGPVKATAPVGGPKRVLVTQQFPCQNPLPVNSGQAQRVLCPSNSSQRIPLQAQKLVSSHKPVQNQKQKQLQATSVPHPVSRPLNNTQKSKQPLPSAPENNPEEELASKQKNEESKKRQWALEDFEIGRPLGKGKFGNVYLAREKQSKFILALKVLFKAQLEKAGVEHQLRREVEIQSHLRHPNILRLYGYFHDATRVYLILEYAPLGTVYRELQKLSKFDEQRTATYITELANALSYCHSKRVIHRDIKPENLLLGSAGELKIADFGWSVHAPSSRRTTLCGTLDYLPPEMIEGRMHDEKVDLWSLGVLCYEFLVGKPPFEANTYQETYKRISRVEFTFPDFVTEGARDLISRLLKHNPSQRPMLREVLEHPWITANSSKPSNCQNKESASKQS

[1] = molecular target: Mitogen-activated protein kinase kinase kinase kinase 1 (Homo sapiens, UniProt Q92918)
[2] = molecular target: Protein kinase C delta type (Homo sapiens, UniProt Q05655)
[3] = molecular target: T3, Serine/threonine-protein kinase TAO3 (Homo sapiens, UniProt Q9H2K8)
T3 sequence (Q9H2K8 whole entry): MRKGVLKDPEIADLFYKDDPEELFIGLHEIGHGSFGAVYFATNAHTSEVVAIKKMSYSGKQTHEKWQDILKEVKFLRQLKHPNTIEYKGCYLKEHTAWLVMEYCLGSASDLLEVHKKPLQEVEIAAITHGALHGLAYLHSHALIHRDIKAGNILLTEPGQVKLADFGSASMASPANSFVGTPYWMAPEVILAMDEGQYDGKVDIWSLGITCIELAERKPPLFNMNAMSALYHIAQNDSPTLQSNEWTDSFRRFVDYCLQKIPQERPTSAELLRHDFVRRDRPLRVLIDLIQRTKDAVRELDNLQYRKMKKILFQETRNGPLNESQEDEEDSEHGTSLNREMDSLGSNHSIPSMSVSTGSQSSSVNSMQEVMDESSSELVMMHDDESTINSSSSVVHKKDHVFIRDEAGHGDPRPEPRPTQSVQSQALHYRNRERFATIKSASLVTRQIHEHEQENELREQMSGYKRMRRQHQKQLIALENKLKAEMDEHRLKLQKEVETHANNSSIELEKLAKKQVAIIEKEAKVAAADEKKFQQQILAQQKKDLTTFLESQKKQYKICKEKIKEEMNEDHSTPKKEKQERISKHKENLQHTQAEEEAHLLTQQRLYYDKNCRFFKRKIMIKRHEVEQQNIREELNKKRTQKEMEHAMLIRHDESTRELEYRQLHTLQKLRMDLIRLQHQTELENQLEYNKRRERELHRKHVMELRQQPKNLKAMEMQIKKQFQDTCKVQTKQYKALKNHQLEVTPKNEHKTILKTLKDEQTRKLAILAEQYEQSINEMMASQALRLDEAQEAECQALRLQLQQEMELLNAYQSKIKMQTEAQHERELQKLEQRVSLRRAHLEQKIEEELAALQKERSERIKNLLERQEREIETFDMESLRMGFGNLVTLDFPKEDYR

[4] = molecular target: T4, Membrane-associated tyrosine- and threonine-specific cdc2-inhibitory kinase (Homo sapiens, UniProt Q99640)
T4 sequence (Q99640 whole entry): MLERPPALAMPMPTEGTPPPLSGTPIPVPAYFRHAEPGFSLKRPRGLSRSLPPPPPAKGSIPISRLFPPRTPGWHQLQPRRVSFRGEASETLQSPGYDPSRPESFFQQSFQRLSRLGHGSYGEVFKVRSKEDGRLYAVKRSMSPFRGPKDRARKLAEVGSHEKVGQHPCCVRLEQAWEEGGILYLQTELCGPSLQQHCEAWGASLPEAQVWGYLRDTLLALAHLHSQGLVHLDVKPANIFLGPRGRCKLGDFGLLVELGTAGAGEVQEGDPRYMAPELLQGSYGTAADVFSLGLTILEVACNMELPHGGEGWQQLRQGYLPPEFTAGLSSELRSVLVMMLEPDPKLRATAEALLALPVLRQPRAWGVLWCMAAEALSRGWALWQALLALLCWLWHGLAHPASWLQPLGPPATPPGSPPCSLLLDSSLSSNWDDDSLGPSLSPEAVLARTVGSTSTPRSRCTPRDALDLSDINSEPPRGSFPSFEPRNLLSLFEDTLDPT

[5] = molecular target: Tyrosine-protein kinase HCK (Homo sapiens, UniProt P08631)
Note: in the data inactive means no Kd found up to 30 µM.

Mitogen-activated protein kinase kinase kinase kinase 1, sequence (Q92918 whole entry): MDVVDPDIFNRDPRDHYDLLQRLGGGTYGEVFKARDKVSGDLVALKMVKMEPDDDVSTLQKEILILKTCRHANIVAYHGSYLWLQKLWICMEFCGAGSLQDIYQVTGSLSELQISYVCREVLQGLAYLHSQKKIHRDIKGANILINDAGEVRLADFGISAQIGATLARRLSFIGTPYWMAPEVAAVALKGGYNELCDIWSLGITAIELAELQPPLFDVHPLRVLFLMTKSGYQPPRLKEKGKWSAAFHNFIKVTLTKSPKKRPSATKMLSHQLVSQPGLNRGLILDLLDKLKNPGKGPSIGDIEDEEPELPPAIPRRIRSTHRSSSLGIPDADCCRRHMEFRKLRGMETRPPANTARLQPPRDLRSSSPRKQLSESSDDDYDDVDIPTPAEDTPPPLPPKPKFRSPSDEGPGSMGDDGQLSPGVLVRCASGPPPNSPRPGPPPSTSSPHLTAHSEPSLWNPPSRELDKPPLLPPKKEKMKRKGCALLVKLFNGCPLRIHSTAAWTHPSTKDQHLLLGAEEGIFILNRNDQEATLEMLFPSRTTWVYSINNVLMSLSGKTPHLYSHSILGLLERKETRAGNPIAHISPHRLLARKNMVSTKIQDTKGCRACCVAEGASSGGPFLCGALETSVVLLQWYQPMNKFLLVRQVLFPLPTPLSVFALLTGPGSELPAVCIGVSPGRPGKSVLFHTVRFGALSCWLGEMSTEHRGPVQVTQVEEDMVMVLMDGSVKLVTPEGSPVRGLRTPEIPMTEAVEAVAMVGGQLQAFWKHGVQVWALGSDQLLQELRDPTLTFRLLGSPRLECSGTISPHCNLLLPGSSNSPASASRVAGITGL
Tyrosine-protein kinase HCK, sequence (P08631 whole entry): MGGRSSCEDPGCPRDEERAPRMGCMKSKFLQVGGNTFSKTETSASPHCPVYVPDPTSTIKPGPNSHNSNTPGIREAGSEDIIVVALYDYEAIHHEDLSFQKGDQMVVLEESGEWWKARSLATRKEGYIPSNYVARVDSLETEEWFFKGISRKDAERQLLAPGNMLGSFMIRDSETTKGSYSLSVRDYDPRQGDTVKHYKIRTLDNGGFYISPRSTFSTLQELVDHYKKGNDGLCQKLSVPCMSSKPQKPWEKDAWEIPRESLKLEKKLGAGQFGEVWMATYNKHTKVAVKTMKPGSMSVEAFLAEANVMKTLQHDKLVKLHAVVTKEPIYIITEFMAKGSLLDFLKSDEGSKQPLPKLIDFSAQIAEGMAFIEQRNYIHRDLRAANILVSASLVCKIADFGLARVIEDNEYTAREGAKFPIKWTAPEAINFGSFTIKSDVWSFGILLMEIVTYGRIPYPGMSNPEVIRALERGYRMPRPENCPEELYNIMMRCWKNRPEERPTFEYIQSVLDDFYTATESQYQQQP
Protein kinase C delta type, sequence (Q05655 whole entry): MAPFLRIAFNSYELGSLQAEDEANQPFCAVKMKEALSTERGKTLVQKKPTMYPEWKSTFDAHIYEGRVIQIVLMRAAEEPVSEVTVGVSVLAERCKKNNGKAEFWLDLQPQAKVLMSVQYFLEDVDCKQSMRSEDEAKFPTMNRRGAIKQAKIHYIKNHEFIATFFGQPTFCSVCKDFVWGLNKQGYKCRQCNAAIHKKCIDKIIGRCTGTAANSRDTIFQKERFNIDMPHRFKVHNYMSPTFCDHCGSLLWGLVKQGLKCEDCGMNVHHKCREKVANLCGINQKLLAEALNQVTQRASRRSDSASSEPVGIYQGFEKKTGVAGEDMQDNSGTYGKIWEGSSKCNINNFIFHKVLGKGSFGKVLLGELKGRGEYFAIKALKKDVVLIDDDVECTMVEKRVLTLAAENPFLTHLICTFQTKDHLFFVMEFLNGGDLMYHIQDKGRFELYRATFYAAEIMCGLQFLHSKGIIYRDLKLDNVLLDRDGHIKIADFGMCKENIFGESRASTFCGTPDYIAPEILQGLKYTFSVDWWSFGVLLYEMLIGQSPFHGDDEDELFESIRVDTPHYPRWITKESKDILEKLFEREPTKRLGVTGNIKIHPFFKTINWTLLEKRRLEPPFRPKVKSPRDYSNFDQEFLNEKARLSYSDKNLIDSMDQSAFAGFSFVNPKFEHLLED

Structure (SMILES)	Kd (Ephrin type-B receptor 6)	Kd (Aurora kinase A)	Kd [1]	Kd [2]	Kd [3]	Kd [4]	Kd [5]
Cc1cc(-c2cc(O)ccc2Cl)cc2nnc(Nc3ccc(OCCN4CCCC4)cc3)nc12	0.0006 µM (active)	> 30 µM (inactive)	> 30 µM (inactive)	> 30 µM (inactive)	> 30 µM (inactive)	> 30 µM (inactive)	> 30 µM (inactive)
Cc1cc([C@@H](C)Nc2ccccc2C(=O)O)c2nc(N3CCOCC3)cc(=O)n2c1 [AZD-6482]	> 30 µM (inactive)	> 30 µM (inactive)	> 30 µM (inactive)	> 30 µM (inactive)	> 30 µM (inactive)	> 30 µM (inactive)	> 30 µM (inactive)
